Literature values as cited in US10765633B2, “Formulation comprising liposomes” (Eisai R&D Management Co., Ltd., priority 2018, dated 2020).

Tested on: HDL
Conditions: binding of eritoran to HDL

## CCCCCC/C=C\CCCCCCCCCC(=O)N[C@H]1[C@H](OC[C@H]2O[C@H](OP(=O)(O)O)[C@H](NC(=O)CC(=O)CCCCCCCCCCC)[C@@H](OCCCCCCCCCC)[C@@H]2O)O[C@H](COC)[C@@H](OP(=O)(O)O)[C@@H]1OCC[C@@H](CCCCCCC)OC [eritoran, Eritoran]
  effect of binding to HDL on drug activity: time-dependent loss of drug activity
